This test concerns the target Eukaryotic translation initiation factor 4H (Homo sapiens, UniProt Q15056). As to the kind of experiment: eIF4H inhibition in translation initiation, SAR follow-up (AID 435011).

The source of these data is BindingDB's records for doi:10.7270/Q2902274 (Burnham Center For Chemical Genomics, 2010).

Some results are limits rather than exact numbers.

The IC50 is the concentration at which inhibition is half-maximal. Take `COc1cc([CH+][N-]NC(=O)c2ccc(O)cc2)ccc1OCC(=O)Nc1cccc([N+](=O)[O-])c1`: the IC50 is over 100 µM.
